Data: the supplement of paper PMC10307832

Key:
Experiment in all cases: relative viability (nuclei count vs DMSO), 5 days (fraction); higher = more cells survive
[1] = compound: Nc1nc2[nH]cc(CCc3ccc(C(=O)N[C@@H](CCC(=O)O)C(=O)O)cc3)c2c(=O)[nH]1 [Pemetrexed] + Cc1nc(NC(=O)N2CCC[C@H]2C(N)=O)sc1-c1ccnc(C(C)(C)C(F)(F)F)c1 [Alpelisib] (partner 2 µM)
Summary of the method: (§1)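 Lung cancer cell lines were pin-tool dosed in 1536-well plates on the day after seeding, with either a lone drug or a fixed anchor-drug dose plus five library-drug doses (not always all listed) in √10 steps. Nuclei were counted on 4× images after 5 days. Relative viability is the ratio of treated-well to vehicle-well nuclei counts, with each value a median of duplicate plates.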

[2] = compound: Nc1nc2[nH]cc(CCc3ccc(C(=O)N[C@@H](CCC(=O)O)C(=O)O)cc3)c2c(=O)[nH]1 [Pemetrexed] + CC1(C)CCC(c2ccc(Cl)cc2)=C(CN2CCN(c3ccc(C(=O)NS(=O)(=O)c4ccc(N[C@H](CCN5CCOCC5)CSc5ccccc5)c(S(=O)(=O)C(F)(F)F)c4)cc3)CC2)C1 [Navitoclax] (partner 0.5 µM)
Summary of the method: as §1

[3] = compound: CC[C@H](Nc1ncnc2[nH]cnc12)c1nc2cccc(F)c2c(=O)n1-c1ccccc1 [Idelalisib] + O=C(CCCCCCC(=O)Nc1ccccc1)NO [Vorinostat] (partner 1 µM)
Summary of the method: as §1

[4] = compound: CC[C@H](Nc1ncnc2[nH]cnc12)c1nc2cccc(F)c2c(=O)n1-c1ccccc1 [Idelalisib] + C[C@]1(O)C[C@@H](c2nc(-c3ccc4ccc(-c5ccccc5)nc4c3)c3c(N)nccn32)C1 [Linsitinib] (partner 1 µM)
Summary of the method: as §1

COR-L 105
relative viability ([1]; first compound 0.002 µM): 0.93 | relative viability ([1]; first compound 0.006325 µM): 0.708 | relative viability ([1]; first compound 0.02 µM): 1.08 | relative viability ([1]; first compound 0.06325 µM): 0.891 | relative viability ([1]; first compound 0.2 µM): 0.909 | relative viability ([2]; first compound 0.002 µM): 0.674 | relative viability ([2]; first compound 0.006325 µM): 0.686 | relative viability ([2]; first compound 0.02 µM): 0.878 | relative viability ([2]; first compound 0.06325 µM): 0.69 | relative viability ([2]; first compound 0.2 µM): 0.707 | relative viability ([3]; first compound 0.04 µM): 0.859 | relative viability ([3]; first compound 0.1265 µM): 0.876 | relative viability ([3]; first compound 0.4 µM): 0.778 | relative viability ([3]; first compound 1.265 µM): 0.724 | relative viability ([3]; first compound 4 µM): 1.11 | relative viability ([4]; first compound 0.04 µM): 1.05 | relative viability ([4]; first compound 0.1265 µM): 0.83 | relative viability ([4]; first compound 0.4 µM): 0.793 | relative viability ([4]; first compound 1.265 µM): 0.806 | relative viability ([4]; first compound 4 µM): 0.595

RERF-LC-KJ
relative viability ([1]; first compound 0.002 µM): 1.12 | relative viability ([1]; first compound 0.006325 µM): 0.774 | relative viability ([1]; first compound 0.02 µM): 0.84 | relative viability ([1]; first compound 0.06325 µM): 0.868 | relative viability ([1]; first compound 0.2 µM): 0.538 | relative viability ([2]; first compound 0.002 µM): 0.952 | relative viability ([2]; first compound 0.006325 µM): 0.722 | relative viability ([2]; first compound 0.02 µM): 1.31 | relative viability ([2]; first compound 0.06325 µM): 1.13 | relative viability ([2]; first compound 0.2 µM): 0.741 | relative viability ([3]; first compound 0.04 µM): 0.826 | relative viability ([3]; first compound 0.1265 µM): 0.754 | relative viability ([3]; first compound 0.4 µM): 0.725 | relative viability ([3]; first compound 1.265 µM): 0.697 | relative viability ([3]; first compound 4 µM): 0.512 | relative viability ([4]; first compound 0.04 µM): 0.973 | relative viability ([4]; first compound 0.1265 µM): 0.863 | relative viability ([4]; first compound 0.4 µM): 0.869 | relative viability ([4]; first compound 1.265 µM): 0.789 | relative viability ([4]; first compound 4 µM): 0.908

NCI-H1793
relative viability ([1]; first compound 0.002 µM): 0.672 | relative viability ([1]; first compound 0.006325 µM): 0.692 | relative viability ([1]; first compound 0.02 µM): 0.83 | relative viability ([1]; first compound 0.06325 µM): 0.624 | relative viability ([1]; first compound 0.2 µM): 0.677 | relative viability ([2]; first compound 0.002 µM): 0.616 | relative viability ([2]; first compound 0.006325 µM): 0.41 | relative viability ([2]; first compound 0.02 µM): 0.55 | relative viability ([2]; first compound 0.06325 µM): 0.421 | relative viability ([2]; first compound 0.2 µM): 0.416 | relative viability ([3]; first compound 0.04 µM): 0.764 | relative viability ([3]; first compound 0.1265 µM): 0.699 | relative viability ([3]; first compound 1.265 µM): 0.75 | relative viability ([3]; first compound 4 µM): 0.582 | relative viability ([4]; first compound 0.04 µM): 1.02 | relative viability ([4]; first compound 0.1265 µM): 0.852 | relative viability ([4]; first compound 0.4 µM): 0.505 | relative viability ([4]; first compound 1.265 µM): 0.797 | relative viability ([4]; first compound 4 µM): 0.582

CAL-12T
relative viability ([1]; first compound 0.002 µM): 1.03 | relative viability ([1]; first compound 0.006325 µM): 0.976 | relative viability ([1]; first compound 0.02 µM): 1.11 | relative viability ([1]; first compound 0.06325 µM): 1.15 | relative viability ([1]; first compound 0.2 µM): 1.05 | relative viability ([2]; first compound 0.002 µM): 1.17 | relative viability ([2]; first compound 0.006325 µM): 1.05 | relative viability ([2]; first compound 0.02 µM): 1.14 | relative viability ([2]; first compound 0.06325 µM): 1.3 | relative viability ([2]; first compound 0.2 µM): 1.22 | relative viability ([3]; first compound 0.04 µM): 0.831 | relative viability ([3]; first compound 0.1265 µM): 0.689 | relative viability ([3]; first compound 0.4 µM): 0.65 | relative viability ([3]; first compound 1.265 µM): 0.704 | relative viability ([3]; first compound 4 µM): 0.648 | relative viability ([4]; first compound 0.04 µM): 0.823 | relative viability ([4]; first compound 0.1265 µM): 0.906 | relative viability ([4]; first compound 0.4 µM): 0.733 | relative viability ([4]; first compound 1.265 µM): 0.822 | relative viability ([4]; first compound 4 µM): 0.584

NCI-H1993
relative viability ([1]; first compound 0.002 µM): 0.731 | relative viability ([1]; first compound 0.006325 µM): 0.645 | relative viability ([1]; first compound 0.02 µM): 0.661 | relative viability ([1]; first compound 0.06325 µM): 0.754 | relative viability ([1]; first compound 0.2 µM): 0.785 | relative viability ([2]; first compound 0.002 µM): 0.808 | relative viability ([2]; first compound 0.006325 µM): 0.832 | relative viability ([2]; first compound 0.02 µM): 0.859 | relative viability ([2]; first compound 0.06325 µM): 0.917 | relative viability ([2]; first compound 0.2 µM): 0.804 | relative viability ([3]; first compound 0.04 µM): 0.983 | relative viability ([3]; first compound 0.1265 µM): 1.09 | relative viability ([3]; first compound 0.4 µM): 0.516 | relative viability ([3]; first compound 1.265 µM): 0.921 | relative viability ([3]; first compound 4 µM): 0.487 | relative viability ([4]; first compound 0.04 µM): 0.824 | relative viability ([4]; first compound 0.1265 µM): 0.673 | relative viability ([4]; first compound 0.4 µM): 0.662 | relative viability ([4]; first compound 1.265 µM): 0.756 | relative viability ([4]; first compound 4 µM): 0.66

LXF-289
relative viability ([1]; first compound 0.002 µM): 1.04 | relative viability ([1]; first compound 0.006325 µM): 1 | relative viability ([1]; first compound 0.02 µM): 1.07 | relative viability ([1]; first compound 0.06325 µM): 1.05 | relative viability ([1]; first compound 0.2 µM): 0.969 | relative viability ([2]; first compound 0.002 µM): 0.881 | relative viability ([2]; first compound 0.006325 µM): 1 | relative viability ([2]; first compound 0.02 µM): 0.994 | relative viability ([2]; first compound 0.06325 µM): 0.993 | relative viability ([2]; first compound 0.2 µM): 0.929 | relative viability ([3]; first compound 0.04 µM): 0.878 | relative viability ([3]; first compound 0.1265 µM): 0.759 | relative viability ([3]; first compound 0.4 µM): 0.781 | relative viability ([3]; first compound 1.265 µM): 0.783 | relative viability ([3]; first compound 4 µM): 0.764 | relative viability ([4]; first compound 0.04 µM): 1 | relative viability ([4]; first compound 0.1265 µM): 0.978 | relative viability ([4]; first compound 0.4 µM): 0.938 | relative viability ([4]; first compound 1.265 µM): 1.07 | relative viability ([4]; first compound 4 µM): 0.978

LU99A
relative viability ([1]; first compound 0.002 µM): 0.517 | relative viability ([1]; first compound 0.006325 µM): 0.556 | relative viability ([1]; first compound 0.02 µM): 0.492 | relative viability ([1]; first compound 0.06325 µM): 0.498 | relative viability ([1]; first compound 0.2 µM): 0.346 | relative viability ([2]; first compound 0.002 µM): 0.73 | relative viability ([2]; first compound 0.006325 µM): 0.75 | relative viability ([2]; first compound 0.02 µM): 0.774 | relative viability ([2]; first compound 0.06325 µM): 0.87 | relative viability ([2]; first compound 0.2 µM): 0.748 | relative viability ([3]; first compound 0.04 µM): 0.536 | relative viability ([3]; first compound 0.1265 µM): 0.468 | relative viability ([3]; first compound 0.4 µM): 0.387 | relative viability ([3]; first compound 1.265 µM): 0.535 | relative viability ([3]; first compound 4 µM): 0.506 | relative viability ([4]; first compound 0.04 µM): 0.473 | relative viability ([4]; first compound 0.1265 µM): 0.528 | relative viability ([4]; first compound 0.4 µM): 0.489 | relative viability ([4]; first compound 1.265 µM): 0.43 | relative viability ([4]; first compound 4 µM): 0.446
